Results as given in US20080280855A1, “Process For the Production of Intermediates For the Preparation of Tricyclic Benzimidazoles” (NYCOMED GmbH, priority 2005, published 2008).
Counter-ions that a name gives are not always drawn.

Tests used:
[1] = system: pentagastrin-stimulated acid secretion of the perfused rat stomach; test: Testing of the secretion-inhibiting action on the perfused rat stomach; settings: dose 1 μmol/kg i.d. (intraduodenal), anesthetized CD rat, female, continuous i.v. pentagastrin infusion; for Inhibition of acid secretion (%): in vivo

melting point [°C] | Compound | inhibition in vivo at 1 µmol/kg [1] [%] | also measured
 | Cc1nc2c3c(c(C(=O)N4CCC4)cc2n1C)CC[C@@H](c1ccccc1)O3 [D, (8S)-Azetidin-1-yl-(2,3-dimethyl-8-phenyl-3,6,7,8-tetrahydro-chromeno[7,8-d]imidazol-5-yl)-methanone] | > 50 | 
 | Cc1nc2c3c(c(C(=O)N(C)C)cc2n1C)CC[C@@H](c1ccc(F)cc1)O3 [G, (8S)-8-(4-Fluoro-phenyl)-2,3-dimethyl-3,6,7,8-tetrahydro-chromeno[7,8-d]imidazole-5-carboxylic Acid Dimethylamide Hydrochloride] | 100 | 
145 to 147 | Cc1nc2c(O)c(CC[C@@H](O)c3ccc4ccccc4c3)c(C(=O)N(C)C)cc2n1C [Example 10, (3R)-7-Hydroxy-6-(3-hydroxy-3-naphthalen-2-yl-propyl)-2,3-dimethyl-3H-benzoimidazole-5-carboxylic Acid Dimethylamide] |  | 
 | Cc1nc2c3c(c(C(=O)N(C)C)cc2n1C)CC[C@@H](c1ccccc1F)O3 [F, (8S)-8-(2-Fluoro-phenyl)-2,3-dimethyl-3,6,7,8-tetrahydro-chromeno[7,8-d]imidazole-5-carboxylic Acid Dimethylamide] | > 70 | 
203 to 205 | Cc1ccccc1[C@@H](O)CCc1c(C(=O)N(C)C)cc2c(nc(C)n2C)c1O [Example 25, (3S)-7-Hydroxy-6-(3-hydroxy-3-o-tolyl-propyl)-2,3-dimethyl-3H-benzoimidazole-5-carboxylic Acid Dimethylamide] |  | 
 | Cc1cc(F)ccc1[C@@H]1CCc2c(C(=O)N(C)C)cc3c(nc(C)n3C)c2O1 [N, (8S)-8-(4-Fluoro-2-methyl-phenyl)-2,3-dimethyl-3,6,7,8-tetrahydro-chromeno[7,8-d]imidazole-5-carboxylic Acid Dimethylamide] | 100 | 
 | CNC(=O)c1cc2c(nc(C)n2C)c2c1CC[C@@H](c1ccccc1)O2 [E, (8S)-2,3-Dimethyl-8-phenyl-3,6,7,8-tetrahydro-chromeno[7,8-d]imidazole-5-carboxylic Acid Methylamide] | > 80 | 
 | Cc1ccccc1[C@@H]1CCc2c(C(=O)N3CCC3)cc3c(nc(C)n3C)c2O1 [Q, (8S)-Azetidin-1-yl-(2,3-dimethyl-8-o-tolyl-3,6,7,8-tetrahydro-chromeno[7,8-d]imidazol-5-yl)-methanone] | 100 | 
 | Cc1ccccc1[C@@H]1CCc2c(C(=O)NC3CC3)cc3c(nc(C)n3C)c2O1 [W, (8S)-2,3-Dimethyl-8-o-tolyl-3,6,7,8-tetrahydro-chromeno[7,8-d]imidazole-5-carboxylic acid cyclopropylamide] | 100 | 
 | CCc1ccccc1[C@@H]1CCc2c(C(=O)N(C)C)cc3c(nc(C)n3C)c2O1 [L, (8S)-(2-Ethyl-phenyl)-2,3-dimethyl-3,6,7,8-tetrahydro-chromeno[7,8-d]imidazole-5-carboxylic Acid Dimethylamide] |  | Inhibition of acid secretion (%) [1]: >70%
 | Cc1nc2c3c(c(C(=O)N(C)C)cc2n1C)CC[C@@H](c1ccccc1Cl)O3 [I, (8S)-8-(2-Chloro-phenyl)-2,3-dimethyl-3,6,7,8-tetrahydro-chromeno[7,8-d]imidazol-5-carboxylic Acid Dimethylamide] | > 70 | 
139 to 140 | Cc1ccccc1[C@H](O)CCc1c(C(=O)N(C)C)cc2c(nc(C)n2C)c1O [Example 7, (3R)-7-Hydroxy-6-(3-hydroxy-3-o-tolyl-propyl)-2,3-dimethyl-3H-benzoimidazole-5-carboxylic Acid Dimethylamide] |  | 
276 to 277 | Cc1nc2c(O)c(CC[C@@H](O)c3ccc(F)cc3)c(C(=O)N(C)C)cc2n1C [Example 6, (3R)-6-[3-(4-Fluoro-phenyl)-3-hydroxy-propyl]-7-hydroxy-2,3-dimethyl-3H-benzoimidazole-5-carboxylic Acid Dimethylamide] |  | 
215 to 216 | Cc1nc2c3c(c(C(=O)N(C)C)cc2[nH]1)CC[C@@H](c1ccccc1)O3 [C, (8S)-2-Methyl-8-phenyl-3,6,7,8-tetrahydro-chromeno[7,8-d]imidazole-5-carboxylic Acid Dimethylamide] | > 90 | 
265 to 266 | Cc1nc2c(O)c(CC[C@@H](O)c3ccccc3)c(C(=O)N3CCC3)cc2n1C [Example 3, (3R)-Azetidin-1-yl-[7-hydroxy-6-(3-hydroxy-3-phenyl-propyl)-2,3-dimethyl-3H-benzoimidazol-5-yl]-methanone] |  | 
 | CNC(=O)c1cc2c(nc(C)n2C)c2c1CC[C@@H](c1ccccc1C)O2 [P, (8S)-2,3-Dimethyl-8-o-tolyl-3,6,7,8-tetrahydro-chromeno[7,8-d]imidazole-5-carboxylic Acid Methylamide] | 100 | 
 | Cc1nc2c3c(c(C(=O)N(C)C)cc2n1C)CC[C@@H](c1ccccc1)O3 [A, (8S)-2,3-Dimethyl-8-phenyl-3,6,7,8-tetrahydro-chromeno[7,8-d]imidazole-5-carboxylic Acid Dimethylamide] | > 60 | 
 | Cc1ccccc1[C@@H]1CCc2c(C(=O)N3CCCC3)cc3c(nc(C)n3C)c2O1 [O, (8S)-(2,3-Dimethyl-8-o-tolyl-3,6,7,8-tetrahydro-chromeno[7,8-d]imidazol-5-yl)-pyrrolidin-1-yl-methanone] | > 60 | 
 | Cc1ccccc1[C@@H]1CCc2c(C(=O)N(C)C)cc3c(nc(C)n3C)c2O1 [H, (8S)-2,3-Dimethyl-8-o-tolyl-3,6,7,8-tetrahydro-chromeno[7,8-d]imidazole-5-carboxylic Acid Dimethylamido] |  | Inhibition of acid secretion (%) [1]: 100%
142 to 143 | Cc1nc2c(O)c(CC[C@@H](O)c3ccccc3)c(C(=O)N(C)C)cc2n1COCC[Si](C)(C)C |  | 
264 to 265 | Cc1nc2c(O)c(CC[C@@H](O)c3cccs3)c(C(=O)N(C)C)cc2n1C [Example 12, (3R)-7-Hydroxy-6-(3-hydroxy-3-thiophen-2-yl-propyl)-2,3-dimethyl-3H-benzoimidazole-5-carboxylic Acid Dimethylamide] |  | 
 | Cc1sccc1[C@@H]1CCc2c(C(=O)N(C)C)cc3c(nc(C)n3C)c2O1 [V, (8S)-2,3-Dimethyl-8-(2-methyl-thiophen-3-yl)-3,6,7,8-tetrahydro-chromeno[7,8-d]imidazole-5-carboxylic acid dimethylamide] | 100 | 
247 to 249 | CNC(=O)c1cc2c(nc(C)n2C)c(O)c1CC[C@@H](O)c1ccccc1 [Example 4, (3R)-7-Hydroxy-6-(3-hydroxy-3-phenyl-propyl)-2,3-dimethyl-3H-benzoimidazole-5-carboxylic Acid Methylamide] |  | 
135 to 137 | CCc1ccccc1[C@H](O)CCc1c(C(=O)N(C)C)cc2c(nc(C)n2C)c1O [Example 11, (3R)-6-[3-(2-Ethyl-phenyl)-3-hydroxy-propyl]-7-hydroxy-2,3-dimethyl-3H-benzoimidazole-5-carboxylic Acid Dimethylamide] |  | 
